In patent publication US10315992B2, “Tetracyline compounds” (Tetraphase Pharmaceuticals, Inc., priority 2012, dated 2019):
Where two headings read alike, the source gives them in different places.

Key:
[1] = tested on: Escherichia coli EC107 (ATCC 25922); assay: MIC assay, EC107; type: cell-based
[2] = tested on: Pseudomonas aeruginosa PA555 (ATCC BAA-47, PAO1); assay: MIC assay, PA555; type: cell-based
EC 880 ipxC = assay: MIC assay, EC880; type: cell-based
Text: Minimum Inhibitory Concentration (MIC) Assay
The assays were run as follows.

[3] = tested on: Burkholderia cenocepacia BC240 (cystic fibrosis isolate, MDR); assay: MIC assay, BC240; type: cell-based; conditions: Burkholderia cenocepacia, control compounds
[4] = tested on: Pseudomonas aeruginosa PA669 (2009 tracheal aspirate isolate); assay: MIC assay, PA669; type: cell-based
[5] = tested on: Stenotrophomonas maltophilia SM256 (cystic fibrosis isolate, MDR); assay: MIC assay, SM256; type: cell-based
[6] = tested on: Enterobacter cloacae EC108 (ATCC 13047); assay: MIC assay, EC108; type: cell-based
[7] = tested on: Klebsiella pneumoniae KP109 (ATCC 13883)
[8] = tested on: Staphylococcus aureus SA101 (ATCC 29213, MSSA); assay: MIC assay, SA101; type: cell-based
[9] = tested on: Klebsiella pneumoniae KP457 (2009 ESBL+, CTX-M, OXA)
[10] = tested on: Moraxella catarrhalis MC205 (ATCC 8176); assay: MIC assay, MC205; type: cell-based
[11] = tested on: Acinetobacter baumannii AB110 (ATCC 19606); assay: MIC assay, AB110; type: cell-based
[12] = tested on: Enterococcus faecium EF404 (blood isolate, tet(M)); assay: MIC assay, EF404; type: cell-based
[13] = tested on: Staphylococcus epidermidis SE164 (ATCC 12228); assay: MIC assay, SE164; type: cell-based; conditions: ATCC12228, read-out: MIC SE 164 12228
[14] = tested on: Klebsiella pneumoniae KP109 (ATCC 13883); assay: MIC assay, KP109; conditions: K. pneumoniae ATCC 13883; Table 4
[15] = tested on: Pseudomonas aeruginosa PA556 (multiple-Mex efflux pump knockout strain); assay: microbe, parasite or virus in culture; type: cell-based
[16] = Table 6, read-out: MIC EC 880 ipx C
[17] = Table 7, read-out: MIC EC 880 ipxC
[18] = ATCC25922, read-out: MIC EC 07 25922, E. coli ATCC 25922, Table 7
[19] = ATCC25922, read-out: MIC EC 107 259 22, E. coli ATCC 25922, Table 6
[20] = ATCC25922, read-out: MIC EC 107 25922, E. coli ATCC 25922, Table 4
[21] = ATCC25922, read-out: MIC EC 107 25922, E. coli ATCC 25922, Table 5
[22] = ATCC25922, read-out: MIC EC 107 25922, control compounds
[23] = ATCC25922, read-out: MIC EC 107 25922, control compounds, numeric
[24] = ATCC13047, read-out: MIC ECI 108 13047
[25] = read-out: MIC SA 101 292 13, S. aureus ATCC 29213, MSSA, Table 6
[26] = read-out: MIC SA 101 29213, S. aureus ATCC 29213, MSSA, Table 4
[27] = read-out: MIC SA 101 29213, S. aureus ATCC 29213, MSSA, Table 5
[28] = read-out: MIC SA 101 29213, S. aureus ATCC 29213, MSSA, Table 7
[29] = read-out: MIC SA 101 29213, control compounds
[30] = read-out: MIC SA 101 29213, control compounds, numeric
[31] = ATCC8176, read-out: MIC MC 205 8176
[32] = ATCC19606, read-out: MIC AB 110 19606

CN(C)c1ccc(O)c2c1C[C@H]1C[C@H]3[C@H](N(C)C)C(O)=C(C(N)=O)C(=O)[C@@]3(O)C(O)=C1C2=O [Minocycline, minocycline]
0.02 µg/mL: MIC (EC 880 ipxC; [17]) | MIC ([10]; ATCC8176, M. catarrhalis ATCC 8176, Table 5, read-out: MIC MC 205 8176)
0.0625 µg/mL: MIC ([8]; S. aureus ATCC 29213, MSSA, Table 5, read-out: MIC SA 101 29213)
0.063 µg/mL: MIC ([8]; S. aureus ATCC 29213, MSSA, Table 4, read-out: MIC SA 101 29213) | MIC ([8]; S. aureus ATCC 29213, MSSA, Table 6, read-out: MIC SA 101 292 13) | MIC ([11]; ATCC19606, A. baumannii ATCC 19606, Table 4, read-out: MIC AB 110 19606)
8 µg/mL: MIC ([3]; c10, strain BC240 inferred, read-out: MIC) | MIC ([3]; numeric, read-out: MIC BC 240) | MIC KP 457 [9] | MIC KP 457 CTX- M-15 [9] | MIC KP 457 CTX-M-15 [9] | MIC ([12]; E. faecium tet(M), Table 6, read-out: MIC EF 404 tet M) | MIC ([12]; control compounds, numeric, read-out: MIC EF 404 tetM)
2 µg/mL: MIC ([6]; ATCC13047, E. cloacae ATCC 13047, Table 4, read-out: MIC ECI 108 13047)
33 µg/mL: MIC ([4]; control compounds, c4, strain PA669 inferred, read-out: MIC) | MIC ([4]; control compounds, numeric, read-out: MIC PA 669)
0.06 µg/mL: MIC ([8]; S. aureus ATCC 29213, MSSA, Table 7, read-out: MIC SA 101 29213) | MIC ([8]; control compounds, numeric, read-out: MIC SA 101 29213) | MIC ([8]; control compounds, read-out: MIC SA 101 29213)
16 µg/mL: MIC ([2]; P. aeruginosa ATCC BAA-47 PAO1, Table 5, read-out: MIC PA 555) | MIC ([2]; P. aeruginosa ATCC BAA-47 PAO1, Table 6, read-out: MIC PA5 55 BAA- 47) | MIC ([2]; P. aeruginosa ATCC BAA-47 PAO1, Table 7, read-out: MIC PA 555 BAA- 47) | MIC ([2]; control compounds, c1, strain PA555 inferred, read-out: MIC) | MIC ([2]; control compounds, numeric, read-out: MIC PA 555 BAA-47)
1 µg/mL: MIC KP 109 13883 [7]
0.015 µg/mL: MIC (EC 880 ipxC; [16])
0.5 µg/mL: MIC ([1]; ATCC25922, E. coli ATCC 25922, Table 6, read-out: MIC EC 107 259 22) | MIC ([1]; ATCC25922, E. coli ATCC 25922, Table 7, read-out: MIC EC 07 25922) | MIC ([1]; ATCC25922, control compounds, numeric, read-out: MIC EC 107 25922) | MIC ([5]; control compounds, c9, strain SM256 inferred, read-out: MIC) | MIC ([5]; control compounds, numeric, read-out: MIC SM 256)

CN(C)[C@@H]1C(O)=C(C(N)=O)C(=O)[C@@]2(O)C(O)=C3C(=O)c4c(O)cccc4C[C@H]3C[C@@H]12 [Sancycline, sancycline]
32 µg/mL: MIC [2] | MIC ([2]; read-out: MIC PA5 55 BAA- 47) | MIC ([2]; read-out: MIC PA 555) | MIC ([2]; read-out: MIC PA 555 BAA- 47) | MIC ([2]; read-out: MIC PA 555 BAA-47)
0.2 µg/mL: MIC (EC 880 ipxC; read-out: MIC EC 880 ipx C)
4 µg/mL: MIC [13] | MIC ([12]; read-out: MIC EF 404 tet M) | MIC ([12]; read-out: MIC EF 404 tetM)
8 µg/mL: MIC [1, 18] | MIC [1, 19] | MIC [1, 20] | MIC [1, 21] | MIC [1, 22] | MIC [1, 23] | MIC KP 109 13883 [14] | MIC [6, 24] | MIC KP 457 [9] | MIC KP 457 CTX- M-15 [9] | MIC KP 457 CTX-M-15 [9]
33 µg/mL: MIC [4] | MIC ([4]; read-out: MIC PA 669)
0.13 µg/mL: MIC [10, 31]
1 µg/mL: MIC [5] | MIC ([5]; read-out: MIC SM 256) | MIC [15] | MIC ([15]; read-out: MIC PA 556)
0.5 µg/mL: MIC [8, 25] | MIC [8, 26] | MIC [8, 27] | MIC [8, 28] | MIC [8, 29] | MIC [8, 30]
0.25 µg/mL: MIC (EC 880 ipxC; [17]) | MIC [11, 32]

CN(C)c1cc(NC(=O)CNC(C)(C)C)c(O)c2c1C[C@H]1C[C@H]3[C@H](N(C)C)C(O)=C(C(N)=O)C(=O)[C@@]3(O)C(O)=C1C2=O [Tigecycline, tigecycline]
0.015 µg/mL: MIC (EC 880 ipxC; [16])
0.06 µg/mL: MIC [8, 28] | MIC [8, 29] | MIC [8, 30]
0.02 µg/mL: MIC (EC 880 ipxC; [17]) | MIC [10, 31]
0.03 µg/mL: MIC [1, 18] | MIC [1, 19] | MIC [1, 21] | MIC [1, 22] | MIC [1, 23] | MIC ([12]; read-out: MIC EF 404 tetM)
0.031 µg/mL: MIC [1, 20] | MIC ([12]; read-out: MIC EF 404 tet M)
32 µg/mL: MIC [4] | MIC ([4]; read-out: MIC PA 669)
0.063 µg/mL: MIC [8, 25] | MIC [8, 26]
1 µg/mL: MIC [5] | MIC ([5]; read-out: MIC SM 256) | MIC KP 457 CTX- M-15 ([9]; K. pneumoniae ESBL+, CTX-M, Table 6) | MIC KP 457 CTX- M-15 ([9]; K. pneumoniae ESBL+, CTX-M, Table 7) | MIC KP 457 CTX-M-15 ([9]; control compounds) | MIC KP 457 ([9]; control compounds, numeric)
0.25 µg/mL: MIC [6, 24] | MIC [15] | MIC ([15]; read-out: MIC PA 556) | MIC [11, 32]
0.0625 µg/mL: MIC [8, 27]
16 µg/mL: MIC [2] | MIC ([2]; read-out: MIC PA5 55 BAA- 47) | MIC ([2]; read-out: MIC PA 555) | MIC ([2]; read-out: MIC PA 555 BAA- 47) | MIC ([2]; read-out: MIC PA 555 BAA-47)
0.125 µg/mL: MIC [13] | MIC KP 109 13883 [14]
